From patent publication US20100317528A1, “HERBICIDE CONTAINING BENZOYLPYRAZOLE COMPOUND” (ISHIHARA SANGYO KAISHA, LTD., priority 2006, published 2010)

Assays:
Format in all cases: in vivo
rice (Oryza sativa L.) [1] = test: Test Example 2: soil application on the day after sowing, rice; conditions: 250 g/ha active ingredient, observed 19th to 28th day after application
Description: (§1) Upland field soil was put into a 1/170,000 hectare pot, and seeds of various plants barnyardgrass (Echinochloa crus-galli L.), crabgrass (Digitaria sanquinalis L.), green foxtail (Setaria viridis L.), redroot pigweed (Amaranthus retroflexus L.), prickly sida (Sida spinosa L.), velvetleaf (Abutilon theophrasti MEDIC.), rice (Oryza sativa L.), wheat (Triticum spp.), corn (Zea mays L.) and soybean (Glycine max Merr.)) were sown. On the day after sowing, wettable powders or emulsifiable concentrates of the compounds of the above formula (I) prepared in accordance with a conventional preparation method, were weighed so that the active ingredients became the prescribed amounts, and diluted with water in an amount corresponding to 500 liter per 1 hectare, followed by soil application with a small sprayer.
(§2) On the 19th to 28th day after the application, the state of growth of the respective plants was visually observed, and the herbicidal effect was evaluated by a growth inhibition rate (%) of from 0 (equivalent to the non-treated area) to 100% (complete kill).

[2] = test system: crabgrass (Digitaria sanguinalis L.); test: Test Example 1: foliar treatment, upland pot test, crabgrass; conditions: 31 g/ha active ingredient, observed 17th to 25th day after application
Description: (§3) Upland field soil was put into a 1/170,000 hectare pot, and seeds of various plants were sown. When the respective plants reached predetermined leaf stage ((1) barnyardgrass (Echinochloa crus-galli L.): 1.0 to 3.0 leaf stage, (2) crabgrass (Digitaria sanguinalis L.): 1.0 to 3.0 leaf stage, (3) green foxtail (Setaria viridis L.): 1.0 to 3.0 leaf stage, (4) redroot pigweed (Amaranthus retroflexus L.): cotyledon stage to 2.0 leaf stage, (5) prickly sida (Sida spinosa L.): cotyledon stage to 1.0 leaf stage, (6) velvetleaf (Abutilon theophrasti MEDIC.): 0.1 to 1.5 leaf stage, (7) rice (Oryza sativa L.): 1.0 to 3.0 leaf stage, (8) wheat (Triticum spp.): 1.7 to 3.4 leaf stage, (9) corn (Zea mays L.): 2.0 to 3.5 leaf stage, (10) soybean (Glycine max Merr.): primary leaf stage to 0.4 leaf stage), wettable powders or emulsifiable concentrates of the compounds of the above formula (I) prepared in accordance with a conventional preparation method, were weighed so that the active ingredients became the prescribed amounts, and diluted with water in an amount corresponding to 500 liter per 1 hectare (containing 0.1 vol % of “KUSARINOH”, manufactured by NIHON NOHYAKU CO., LTD. as an agricultural spreader). The spray solutions thus prepared were applied for foliar treatment by a small sprayer.
(§4) On the 17th to 25th day after application, the state of growth of the respective plants was visually observed, and the herbicidal effect was evaluated by a growth inhibition rate (%) of 0 (equivalent to the non-treated area) to 100% (complete kill).

[3] = test system: green foxtail (Setaria viridis L.); test: Test Example 1: foliar treatment, upland pot test, green foxtail; conditions: 31 g/ha active ingredient, observed 17th to 25th day after application
Description: as §3, §4

[4] = test system: redroot pigweed (Amaranthus retroflexus L.); test: Test Example 1: foliar treatment, upland pot test, redroot pigweed; conditions: 31 g/ha active ingredient, observed 17th to 25th day after application
Description: as §3, §4

[5] = test system: barnyardgrass (Echinochloa crus-galli L.); test: Test Example 2: soil application on the day after sowing, barnyardgrass; conditions: 250 g/ha active ingredient, observed 19th to 28th day after application
Description: as §1, §2

wheat (Triticum spp.) [6] = test: Test Example 1: foliar treatment, upland pot test, wheat; conditions: 31 g/ha active ingredient, observed 17th to 25th day after application
Description: as §3, §4

[7] = test system: crabgrass (Digitaria sanquinalis L.); test: Test Example 2: soil application on the day after sowing, crabgrass; conditions: 250 g/ha active ingredient, observed 19th to 28th day after application
Description: as §1, §2

[8] = test system: velvetleaf (Abutilon theophrasti MEDIC.); test: Test Example 2: soil application on the day after sowing, velvetleaf; conditions: 250 g/ha active ingredient, observed 19th to 28th day after application
Description: as §1, §2

[9] = test system: soybean (Glycine max Merr.); test: Test Example 2: soil application on the day after sowing, soybean; conditions: 250 g/ha active ingredient, observed 19th to 28th day after application
Description: as §1, §2

[10] = test system: redroot pigweed (Amaranthus retroflexus L.); test: Test Example 2: soil application on the day after sowing, redroot pigweed; conditions: 250 g/ha active ingredient, observed 19th to 28th day after application
Description: as §1, §2

[11] = test system: velvetleaf (Abutilon theophrasti MEDIC.); test: Test Example 1: foliar treatment, upland pot test, velvetleaf; conditions: 31 g/ha active ingredient, observed 17th to 25th day after application
Description: as §3, §4

[12] = test system: prickly sida (Sida spinosa L.); test: Test Example 1: foliar treatment, upland pot test, prickly sida; conditions: 31 g/ha active ingredient, observed 17th to 25th day after application
Description: as §3, §4

corn (Zea mays L.) [13] = test: Test Example 2: soil application on the day after sowing, corn; conditions: 250 g/ha active ingredient, observed 19th to 28th day after application
Description: as §1, §2

wheat (Triticum spp.) [14] = test: Test Example 2: soil application on the day after sowing, wheat; conditions: 250 g/ha active ingredient, observed 19th to 28th day after application
Description: as §1, §2

rice (Oryza sativa L.) [15] = test: Test Example 1: foliar treatment, upland pot test, rice; conditions: 31 g/ha active ingredient, observed 17th to 25th day after application
Description: as §3, §4

corn (Zea mays L.) [16] = test: Test Example 1: foliar treatment, upland pot test, corn; conditions: 31 g/ha active ingredient, observed 17th to 25th day after application
Description: as §3, §4

[17] = test system: green foxtail (Setaria viridis L.); test: Test Example 2: soil application on the day after sowing, green foxtail; conditions: 250 g/ha active ingredient, observed 19th to 28th day after application
Description: as §1, §2

[18] = test system: prickly sida (Sida spinosa L.); test: Test Example 2: soil application on the day after sowing, prickly sida; conditions: 250 g/ha active ingredient, observed 19th to 28th day after application
Description: as §1, §2

[19] = test system: barnyardgrass (Echinochloa crus-galli L.); test: Test Example 1: foliar treatment, upland pot test, barnyardgrass; conditions: 31 g/ha active ingredient, observed 17th to 25th day after application
Description: as §3, §4

[20] = test system: soybean (Glycine max Merr.); test: Test Example 1: foliar treatment, upland pot test, soybean; conditions: 31 g/ha active ingredient, observed 17th to 25th day after application
Description: as §3, §4

[21] = Oryza sativa, read-out: Growth inhibition rate (%) Rice
[22] = Setaria viridis, read-out: Growth inhibition rate (%) Green foxtail
[23] = Amaranthus retroflexus, read-out: Growth inhibition rate (%) Redroot pigweed
[24] = Echinochloa crus-galli, read-out: Growth inhibition rate (%) Barnyardgrass
[25] = Triticum, read-out: Growth inhibition rate (%) Wheat
[26] = Abutilon theophrasti, read-out: Growth inhibition rate (%) Velvetleaf
[27] = Sida spinosa, read-out: Growth inhibition rate (%) Prickly sida
[28] = Zea mays, read-out: Growth inhibition rate (%) Corn

Row | Compound | Growth inhibition rate (%) Rice (rice (Oryza sativa L.) [1]) [%] | Growth inhibition rate (%) Crabgrass [2] [%] | Growth inhibition rate (%) Green foxtail [3] [%] | Growth inhibition rate (%) Redroot pigweed [4] [%] | Growth inhibition rate (%) Barnyardgrass [5] [%] | Growth inhibition rate (%) Wheat (wheat (Triticum spp.) [6]) [%] | Growth inhibition rate (%) Crabgrass [7] [%] | Growth inhibition rate (%) Velvetleaf [8] [%] | Growth inhibition rate (%) Soybean [9] [%] | Growth inhibition rate (%) Redroot pigweed [10] [%] | Growth inhibition rate (%) Velvetleaf [11] [%] | Growth inhibition rate (%) Corn (corn (Zea mays L.) [13]) [%] | Growth inhibition rate (%) Wheat (wheat (Triticum spp.) [14]) [%] | Growth inhibition rate (%) Rice (rice (Oryza sativa L.) [15]) [%] | Growth inhibition rate (%) Corn (corn (Zea mays L.) [16]) [%] | Growth inhibition rate (%) Green foxtail [17] [%] | Growth inhibition rate (%) Prickly sida [18] [%] | Growth inhibition rate (%) Barnyardgrass [19] [%] | further results
1 | COC(=O)Cc1c(S(C)(=O)=O)ccc(C(=O)c2cnn(C)c2O)c1C [compound 156] | 60 | 90 | 70 | 70 | 60 | 0 | 95 | 80 | 0 | 100 | 80 | 0 | 0 | 70 | 0 | 50 | 80 | 75 | Growth inhibition rate (%) Prickly sida [12]: 60%
2 | COC(=O)c1c(S(C)(=O)=O)ccc(C(=O)c2cnn(C)c2O)c1C [compound 126] |  |  |  |  |  |  |  |  |  |  |  |  |  |  |  |  |  |  | inhibition at 250 g/ha (rice (Oryza sativa L.) [1]; [21]): 95%; inhibition at 31 g/ha ([2]; Digitaria sanguinalis, read-out: Growth inhibition rate (%) Crabgrass): 80%; inhibition at 31 g/ha [3, 22]: 100%; inhibition at 31 g/ha [4, 23]: 100%; inhibition at 250 g/ha [5, 24]: 90%; inhibition at 31 g/ha (wheat (Triticum spp.) [6]; [25]): 0%; inhibition at 250 g/ha ([7]; Digitaria, read-out: Growth inhibition rate (%) Crabgrass): 100%; inhibition at 250 g/ha [8, 26]: 70%; inhibition at 250 g/ha ([9]; Glycine max, read-out: Growth inhibition rate (%) Soybean): 60%; inhibition at 250 g/ha [10, 23]: 100%; inhibition at 31 g/ha [11, 26]: 100%; inhibition at 31 g/ha [12, 27]: 90%; inhibition at 250 g/ha (corn (Zea mays L.) [13]; [28]): 0%; inhibition at 250 g/ha (wheat (Triticum spp.) [14]; [25]): 10%; inhibition at 31 g/ha (rice (Oryza sativa L.) [15]; [21]): 100%; inhibition at 31 g/ha (corn (Zea mays L.) [16]; [28]): 5%; inhibition at 250 g/ha [17, 22]: 70%; inhibition at 250 g/ha [18, 27]: 70%; inhibition at 31 g/ha [19, 24]: 95%
3 | Cc1c(C(=O)c2cnn(C)c2O)ccc(S(C)(=O)=O)c1OC(C)C [compound 145] | 0 | 60 | 75 | 90 | 60 | 0 | 90 | 40 | 0 | 60 | 85 | 0 | 0 | 60 | 0 | 30 | 60 | 70 | Growth inhibition rate (%) Soybean [20]: 70%
